Columns and labels:
[1] = tested on: Cyperus iria; assay: Preemergence weed control under flooded paddy conditions, CYPIR (Rice Flatsedge); type: in vivo; conditions: preemergence, flooded paddy; as to herbicidal effect rating, CYPIR: meaning of each grade not given here
[2] = tested on: Oryza sativa, (L.) Tebonnet; assay: Rice tolerance to post-transplant applications under flooded paddy conditions (Example 187), ORYSAT (Rice, Tebonnet); conditions: for herbicidal effect rating ORYSAT: rated 3-4 weeks after treatment; for herbicidal effect rating, ORYSAT (rice tolerance) / ORYSAT herbicidal effect rating: rated three to four weeks after treatment; as to herbicidal effect rating ORYSAT: meaning of each grade not given here
[3] = tested on: Cyperus serotinus, Rottb.; assay: Preemergence weed control under flooded paddy conditions, CYPSE (Flatsedge); type: in vivo; conditions: preemergence; as to herbicidal effect rating, CYPSE: meaning of each grade not given here
[4] = tested on: Echinochloa oryzoides (Ard.) Fritsch.; assay: Preemergence weed control under flooded paddy conditions, ECHORC (Watergrass (Calif.)); type: in vivo; conditions: preemergence, flooded paddy; as to herbicidal effect rating, ECHORC: meaning of each grade not given here
[5] = tested on: Monochoria vaginalis, Presl.; assay: Preemergence weed control under flooded paddy conditions, MOOVA (Monochoria); type: in vivo; conditions: preemergence, flooded paddy; as to herbicidal effect rating, MOOVA: meaning of each grade not given here
[6] = tested on: Sagittaria pygmaea, L.; assay: Preemergence weed control under flooded paddy conditions, SAGPY (Arrowhead (Pygmaea)); type: in vivo; conditions: preemergence, flooded paddy; as to herbicidal effect rating, SAGPY: meaning of each grade not given here
[7] = Rate 0.0320 kg/ha, rated 3-4 weeks after treatment
[8] = Rate 0.0620 kg/ha, rated 3-4 weeks after treatment
[9] = Rate 0.1250 kg/ha, rated 3-4 weeks after treatment
[10] = Rate 0.2500 kg/ha, rated 3-4 weeks after treatment
[11] = Rate 0.5000 kg/ha, rated 3-4 weeks after treatment
[12] = 0.0313 kg/ha, rated three to four weeks after treatment
[13] = 0.0625 kg/ha, rated three to four weeks after treatment
[14] = 0.1250 kg/ha, rated three to four weeks after treatment
[15] = 0.2500 kg/ha, rated three to four weeks after treatment
[16] = Rate 0.0320 kg/ha, rated three to four weeks after treatment
[17] = Rate 0.0620 kg/ha, rated three to four weeks after treatment
[18] = Rate 0.1250 kg/ha, rated three to four weeks after treatment
[19] = Rate 0.2500 kg/ha, rated three to four weeks after treatment
[20] = Rate 0.5000 kg/ha, rated three to four weeks after treatment

Cn1c(C(F)(F)F)cc(=O)n(-c2ccc3snc(-c4ccccc4OCC(N)=O)c3c2)c1=O [Example 548, Acetamide, 2-{o-{5-[3,6-dihydro-3-methyl-2,6-dioxo-4-(trifluoromethyl)-1(2H)-pyrimidinyl]-1,2-benzisothiazol-3-yl}phenoxy}-]
herbicidal effect rating, CYPIR [1, 7]: 2.0 | herbicidal effect rating, CYPIR [1, 8]: 6.0 | herbicidal effect rating, CYPIR [1, 9]: 8.0 | herbicidal effect rating, CYPIR [1, 10]: 9.0 | herbicidal effect rating, CYPIR [1, 11]: 0.0 | herbicidal effect rating ORYSAT ([2]; Rate 0.0320 kg/ha): 3.0 | herbicidal effect rating ORYSAT ([2]; Rate 0.0620 kg/ha): 2.0 | herbicidal effect rating ORYSAT ([2]; Rate 0.1250 kg/ha): 4.0 | herbicidal effect rating ORYSAT ([2]; Rate 0.2500 kg/ha): 6.0 | herbicidal effect rating ORYSAT ([2]; Rate 0.5000 kg/ha): 4.0 | herbicidal effect rating, CYPSE [3, 8]: 9.0 | herbicidal effect rating, CYPSE [3, 9]: 9.0 | herbicidal effect rating, CYPSE [3, 10]: 9.0 | herbicidal effect rating, CYPSE [3, 11]: 9.0 | herbicidal effect rating, ECHORC [4, 7]: 2.9 | herbicidal effect rating, ECHORC [4, 8]: 3.7 | herbicidal effect rating, ECHORC [4, 9]: 4.9 | herbicidal effect rating, ECHORC [4, 10]: 9.0 | herbicidal effect rating, ECHORC [4, 11]: 6.0 | herbicidal effect rating, MOOVA [5, 7]: 8.0 | herbicidal effect rating, MOOVA [5, 8]: 9.0 | herbicidal effect rating, MOOVA [5, 9]: 9.0 | herbicidal effect rating, MOOVA [5, 10]: 9.0 | herbicidal effect rating, MOOVA [5, 11]: 9.0 | herbicidal effect rating, SAGPY [6, 7]: 0.0 | herbicidal effect rating, SAGPY [6, 8]: 0.0 | herbicidal effect rating, SAGPY [6, 9]: 2.0 | herbicidal effect rating, SAGPY [6, 10]: 4.0 | herbicidal effect rating, SAGPY [6, 11]: 0.0

Cc1ccc(OCC#N)c(-c2nsc3ccc(-n4c(=O)cc(C(F)(F)F)n(C)c4=O)cc23)c1 [Example 57, 3-{3-[6-(Cyanomethoxy)-m-tolyl]-1,2-benzisothiazol-5-yl}-1-methyl-6-(trifluoromethyl)-2,4(1H,3H)-pyrimidinedione]
herbicidal effect rating, CYPIR [1, 12]: 9.0 | herbicidal effect rating, CYPIR [1, 13]: 9.0 | herbicidal effect rating, CYPIR [1, 14]: 9.0 | herbicidal effect rating, CYPIR [1, 15]: 9.0 | herbicidal effect rating, ORYSAT (rice tolerance) ([2]; 0.0313 kg/ha): 3.0 | herbicidal effect rating, ORYSAT (rice tolerance) ([2]; 0.0625 kg/ha): 4.0 | herbicidal effect rating, ORYSAT (rice tolerance) ([2]; 0.1250 kg/ha): 5.0 | herbicidal effect rating, ORYSAT (rice tolerance) ([2]; 0.2500 kg/ha): 6.0 | herbicidal effect rating, CYPSE [3, 12]: 0.0 | herbicidal effect rating, CYPSE [3, 13]: 0.0 | herbicidal effect rating, CYPSE [3, 14]: 0.0 | herbicidal effect rating, CYPSE [3, 15]: 0.0 | herbicidal effect rating, ECHORC [4, 12]: 9.0 | herbicidal effect rating, ECHORC [4, 13]: 9.0 | herbicidal effect rating, ECHORC [4, 14]: 9.0 | herbicidal effect rating, ECHORC [4, 15]: 9.0 | herbicidal effect rating, MOOVA [5, 12]: 9.0 | herbicidal effect rating, MOOVA [5, 13]: 9.0 | herbicidal effect rating, MOOVA [5, 14]: 9.0 | herbicidal effect rating, MOOVA [5, 15]: 9.0 | herbicidal effect rating, SAGPY [6, 12]: 0.0 | herbicidal effect rating, SAGPY [6, 13]: 0.0 | herbicidal effect rating, SAGPY [6, 14]: 0.0 | herbicidal effect rating, SAGPY [6, 15]: 0.0

C=CC(CCCC)OC(=O)COc1ccc(C)cc1-c1nsc2ccc(-n3c(=O)cc(C(F)(F)F)n(C)c3=O)cc12 (stereo not shown) [Example 520, Acetic acid, {{2-{5-[3,6-dihydro-3-methyl-2,6-dioxo-4-(trifluoromethyl)-1(2H)-pyrimidinyl]-1,2-benzisothiazol-3-yl}-p-tolyl}oxy}-, 1-vinylpentyl ester]
herbicidal effect rating, CYPIR [1, 7]: 0.0 | herbicidal effect rating, CYPIR [1, 8]: 0.0 | herbicidal effect rating, CYPIR [1, 9]: 2.0 | herbicidal effect rating, CYPIR [1, 10]: 4.0 | herbicidal effect rating ORYSAT ([2]; Rate 0.0320 kg/ha): 2.0 | herbicidal effect rating ORYSAT ([2]; Rate 0.0620 kg/ha): 3.5 | herbicidal effect rating ORYSAT ([2]; Rate 0.1250 kg/ha): 4.5 | herbicidal effect rating ORYSAT ([2]; Rate 0.2500 kg/ha): 3.0 | herbicidal effect rating, CYPSE [3, 7]: 0.0 | herbicidal effect rating, CYPSE [3, 8]: 0.0 | herbicidal effect rating, CYPSE [3, 9]: 0.0 | herbicidal effect rating, CYPSE [3, 10]: 0.0 | herbicidal effect rating, ECHORC [4, 7]: 6.5 | herbicidal effect rating, ECHORC [4, 8]: 8.0 | herbicidal effect rating, ECHORC [4, 9]: 8.5 | herbicidal effect rating, ECHORC [4, 10]: 9.0 | herbicidal effect rating, MOOVA [5, 7]: 9.0 | herbicidal effect rating, MOOVA [5, 8]: 9.0 | herbicidal effect rating, MOOVA [5, 9]: 9.0 | herbicidal effect rating, MOOVA [5, 10]: 9.0 | herbicidal effect rating, SAGPY [6, 7]: 0.0 | herbicidal effect rating, SAGPY [6, 8]: 0.0 | herbicidal effect rating, SAGPY [6, 9]: 0.0 | herbicidal effect rating, SAGPY [6, 10]: 0.0

COC(=O)C(C)Oc1ccc(-c2nsc3ccc(-n4c(=O)cc(C(F)(F)F)n(C)c4=O)cc23)cc1 (stereo not shown) [Example 258, Propionic acid, 2-{p-{5-[3,6-dihydro-3-methyl-2,6-dioxo-4-(trifluoromethyl)-1(2H)-pyrimidinyl]-1,2-benzisothiazol-3-yl}phenoxy}-, methyl ester]
CYPIR herbicidal effect rating [1, 16]: 0.0 | CYPIR herbicidal effect rating [1, 17]: 2.0 | CYPIR herbicidal effect rating [1, 18]: 7.0 | CYPIR herbicidal effect rating [1, 19]: 8.0 | ORYSAT herbicidal effect rating ([2]; Rate 0.0320 kg/ha): 2.0 | ORYSAT herbicidal effect rating ([2]; Rate 0.0620 kg/ha): 2.0 | ORYSAT herbicidal effect rating ([2]; Rate 0.1250 kg/ha): 3.0 | ORYSAT herbicidal effect rating ([2]; Rate 0.2500 kg/ha): 4.0 | CYPSE herbicidal effect rating [3, 16]: 0.0 | CYPSE herbicidal effect rating [3, 17]: 0.0 | CYPSE herbicidal effect rating [3, 18]: 0.0 | ECHORC herbicidal effect rating [4, 16]: 0.0 | ECHORC herbicidal effect rating [4, 17]: 0.0 | ECHORC herbicidal effect rating [4, 18]: 0.0 | ECHORC herbicidal effect rating [4, 19]: 0.0 | MOOVA herbicidal effect rating [5, 16]: 9.0 | MOOVA herbicidal effect rating [5, 17]: 9.0 | MOOVA herbicidal effect rating [5, 18]: 9.0 | MOOVA herbicidal effect rating [5, 19]: 9.0 | SAGPY herbicidal effect rating [6, 16]: 0.0 | SAGPY herbicidal effect rating [6, 17]: 0.0 | SAGPY herbicidal effect rating [6, 18]: 0.0 | SAGPY herbicidal effect rating [6, 19]: 0.0

Cn1c(C(F)(F)F)cc(=O)n(-c2ccc3snc(CS(=O)(=O)CC(=O)O)c3c2)c1=O [Example 282, Acetic acid, {{{5-[3,6-dihydro-3-methyl-2,6-dioxo-4-(trifluoromethyl)-1(2H)-pyrimidinyl]-1,2-benzisothiazol-3-yl}methyl}sulfonyl}-]
CYPIR herbicidal effect rating [1, 16]: 4.0 | CYPIR herbicidal effect rating [1, 17]: 8.0 | CYPIR herbicidal effect rating [1, 18]: 8.0 | CYPIR herbicidal effect rating [1, 19]: 8.0 | CYPIR herbicidal effect rating [1, 20]: 9.0 | ORYSAT herbicidal effect rating ([2]; Rate 0.0320 kg/ha): 2.0 | ORYSAT herbicidal effect rating ([2]; Rate 0.0620 kg/ha): 3.0 | ORYSAT herbicidal effect rating ([2]; Rate 0.1250 kg/ha): 4.0 | ORYSAT herbicidal effect rating ([2]; Rate 0.2500 kg/ha): 4.0 | ORYSAT herbicidal effect rating ([2]; Rate 0.5000 kg/ha): 0.0 | CYPSE herbicidal effect rating [3, 16]: 0.0 | CYPSE herbicidal effect rating [3, 17]: 0.0 | CYPSE herbicidal effect rating [3, 18]: 0.0 | CYPSE herbicidal effect rating [3, 19]: 0.0 | CYPSE herbicidal effect rating [3, 20]: 0.0 | ECHORC herbicidal effect rating [4, 16]: 0.0 | ECHORC herbicidal effect rating [4, 17]: 0.0 | ECHORC herbicidal effect rating [4, 18]: 1.9 | ECHORC herbicidal effect rating [4, 19]: 0.0 | ECHORC herbicidal effect rating [4, 20]: 0.0 | MOOVA herbicidal effect rating [5, 16]: 6.0 | MOOVA herbicidal effect rating [5, 17]: 9.0 | MOOVA herbicidal effect rating [5, 18]: 9.0 | MOOVA herbicidal effect rating [5, 19]: 9.0 | MOOVA herbicidal effect rating [5, 20]: 9.0 | SAGPY herbicidal effect rating [6, 16]: 0.0 | SAGPY herbicidal effect rating [6, 17]: 0.0 | SAGPY herbicidal effect rating [6, 18]: 0.0 | SAGPY herbicidal effect rating [6, 19]: 0.0 | SAGPY herbicidal effect rating [6, 20]: 0.0

From patent EP0908457B1, “3-(1,2-benzisothiazol- and isoxazol-5-Y1)-2,4(1H,3H)-pyrimidinedione or thione and 3-(1,2-benzisothiazol- and isoxazol-5-y1)-4(3H)-pyrimidinone or thione herbicidal agents” (BASF AKTIENGESELLSCHAFT, priority 1997, dated 1999)
